# Data published in patent US5217953A, “Vasoactive intestinal peptide antagonist” (The United States of America as represented by the …, priority 1990, dated 1993).
# Where two headings read alike, the source gives them in different places. No end group written: not given here.
# Key:
# [1] = molecular target: NSCLC VIP receptors (EPLC-65H membranes); assay: 125I-VIP binding to EPLC-65H membranes; details: for IC50 / Kd: EPLC-65H membranes; for IC50: 37° C., 60 min, read-out: IC50, inhibition of specific 125I-VIP binding
# Description: The binding properties and the adenylate cyclase activity of the VIP receptor in NSCLC cell lines were investigated. NSCLC cells were cultured in RPMI-1640 containing 10% heat inactivated fetal bovine serum (Carney et al. (1985) Cancer Res. 45:2913-2923). When a monolayer formed, the adherent cells were washed with PBS and treated with trypsin/EDTA. The cells were pelleted and resuspended in serum supplemented medium and incubated at 37° C. in 5% CO2 /95% air. Routinely the cells were passed 1/1 weekly and experiments were conducted when the cells were in exponential growth phase.
# Cells were rinsed twice in PBS. Membranes were prepared from EPLC-65H by lysing cells in 20 mM Tris.HCl (pH7.5), 1 mg/ml bacitracin, 1 mM PMSF and 0.25M sucrose. The cells were sonicated (15 sec, 120 W) and the membranes centrifuged at 500×g for 5 min in a Beckman J-21 B centrifuge at 4° C. The supernatant was saved and the pellet resuspended, homogenized and centrifuged. The supernatants were combined and centrifuged at 50,000×g for 30 min. The pellet, which contains plasma membranes, was resuspended and 50 μg of membrane protein and 2×10^5 cpm of ^125 I-VIP (2200 Ci/mmol) was added to each assay tube in a total volume of 100 μl; the buffer was 50 mM Tris.maleate, 2 mM MgCl2, 2% BSA, 500 KIU/ml trasylol and 0.2 mg/ml bacitracin. The samples were incubated at 37° C. for 60 min. To terminate the reaction, the incubation solution was centrifuged for 3 min in a microfuge B. The supernatant, which contained free peptide was removed and the top of the pellet rinsed three times with cold assay buffer. The pellet, which contained bound ^125 I-VIP was counted in a gamma counter.
# ^125 I was purchased from NEN. VIP was iodinated using the chloramine T procedure (Christophe et al. (1976) J. Biol. Chem. 251:4629-4634). ^125 I-VIP was purified using gel filtration techniques. VIP peptides were purchased from Peninsula Laboratories Inc. (San Carlos, Calif.).
# [2] = tested on: castrated rats injected with testosterone; assay: Sexual behavior of castrated rats supplemented with testosterone; type: in vivo, rat
# Description: Rats were castrated and injected with testosterone (4 μg/100 g BW) daily for 14 consecutive days. VIP (5 μg/animal) and the antagonists (30 μg/animal) were injected ip in a volume of 0.25 ml. Initial experiments were conducted using iv injections; however, as no significant differences were observed between iv and ip administration, ip injections were chosen in this model. When comparisons were made, the same group of rats was injected with one peptide and, after a period of at least 24 hr, with another peptide.
# VIP receptor = assay: [125I]VIP binding to rat cortical astrocyte (glial) cell cultures; details: 60 pM [125I]VIP, intact cells, 4° C.; for displacement of VIP binding: 10 μM
# Description: Rat cortical astrocyte cultures were prepared by previously described methods (Evans et al. (1984) J. Neurochem. 43:131; Brenneman et al.(1987) J. Cell Biol. 104:1603). VIP binding studies were conducted on intact cells at 4° C., using PBS containing 0.1% BSA. The cultures (1 mg protein/35 mm culture dish) were incubated with either VIP or the antagonist (10 μM to 1 pM) for 30 min before the addition of 60 pM [^125 I]VIP at Tyr-22 (2000 Ci/mmol; Amersham Corp., Arlington Heights, Ill). Labeled VIP was incubated with the cultures for 1 hr; the medium was then removed, and cells were washed three times by the addition and rapid removal of 1 ml PBS (at 4° C.). The labeled cells were dissolved in 0.02N NaOH and transferred for radioactivity counting.
# NCI-H522 = assay: Soft agar colony formation, NCI-H522; type: cell-based; details: 1 μM, 2 weeks
# Description: (§1) In order to test whether the VIP-neurotensin hybrid antagonist inhibited the growth of NSCLC, single viable cells (10^4) were plated in soft agar in the absence and presence of 1 μM VIP-neurotensin hybrid antagonist. After 2 weeks, colonies were stained with a vital dye and live colonies (>[…]) counted. The colony fraction (colonies in the presence of the VIP-neurotensin hybrid antagonist relative to the number of basal colonies) was calculated. Cell lines NCI-H522, NCI-H838, and NCI-H1246 had colony fractions of 0.45±0.16, 0.76±0.04, and 1.47±0.30, respectively. The VIP-neurotensin hybrid antagonist inhibited colony formation of cell lines NCI-H522 and NCI-H838 but not NCI-H1246.
# NCI-H838 = assay: Soft agar colony formation, NCI-H838; type: cell-based; details: 1 μM, 2 weeks
# Description: as §1
# NCI-H1246 = assay: Soft agar colony formation, NCI-H1246; type: cell-based; details: 1 μM, 2 weeks
# Description: as §1
# [3] = tested on: pituitary-transplanted male rats; assay: Sexual behavior of pituitary-grafted gonadally intact male rats; type: in vivo, rat; details: 5 ug iv
# Description: (§2) Male rats were sexually experienced Wistar-derived animals (250-300 g), approximately 3 months old from the Department of Hormone Research, Weizmann Institute of Science. All rats were kept in a 12-hr light, 12-hr dark cycle. Experiments were always conducted within the dark period 2-6 hrs after the onset of darkness. Before testing, each male was put in a separate cage for a period of at least 1 hr. A sexually receptive female (as tested by vaginal smearing) was introduced to each male. Latencies were defined as the intervals between copulatory behaviors (mounts and intromissions). These were recorded over a 15-min period. The latencies to the first copulatory event are reported separately.
# This procedure results in hyperprolactinemia and a decrease in sexual potency in male rats. Pituitary-transplanted male rats (8 weeks after transplantation) were injected with 5 μg VIP, iv. As a control, saline iv was injected at identical volumes. The peptide was injected into the tail vein, restraining the animal by hand (two people were involved in the actual injection). The animals were subjected to the behavioral tests immediately after the injection. At least 24 hr elapsed between two consecutive tests per animal (i.e. between saline injection and VIP injection). The doses of VIP were deduced from those used to induce penile erection in men (Ottesen et al. (1984) Br. Med. J. 288:9). The statistical analysis involved a single test measurement per animal.
# castrated rats = assay: Sexual behavior of castrated rats without testosterone supplementation; type: in vivo, rat
# Description: as §2
# After castration, the animals lose sexual activity in a time-dependent manner (Bradshaw et al. (1981) Endocrinology 109:1047; Reach et al. (1946) J. Exp. Zool. 101:91), and eventually all sexual activities are blocked. […] VIP (5 μg/animal) and the antagonists (30 μg/animal) were injected ip in a volume of 0.25 ml. Initial experiments were conducted using iv injections; however, as no significant differences were observed between iv and ip administration, ip injections were chosen in this model. When comparisons were made, the same group of rats was injected with one peptide and, after a period of at least 24 hr, with another peptide. The other parameters used for the experiment are described above.
# The second paradigm was the castrated rat model.
# cAMP levels in 5M2 cells = assay: cAMP radioimmunoassay in 5M2 cells; type: cell-based; details: 5 min exposure
# Description: The cAMP assays were performed by radioimmunoassay. 5M2 cells were exposed to stimuli in SIT medium (RPMI-1640 containing 10^-8 M Se2 O3, 1 μg/ml insulin and 3×10^-8 M transferrin) containing […] isobutyl-methyl-xanthine. After 5 min, the reaction was quenched by adding an equal volume of ice cold ethanol. The samples were vortexed and an aliquot of supernatant removed and added to 100 μl of 50 mM sodium acetate (pH 6.2). The sample (25 μl) was acetylated at 4° C. by adding 10 μl of triethylamine followed by 5 μl of acetic anhydride. Then 200 μl of goat anti-cyclic AMP antibody was added followed by 8,000 cpm of ^125 I-2-succinyl (tyrosine methyl ester)-cyclic AMP (NEN). After incubation for 16 hr at 4° C., 1 ml of charcoal suspension (2 mg/ml Norit-A charcoal in 100 mM phosphate buffer, pH 6.3, which contains 0.25% BSA) was added, the tubes vortexed and centrifuged at 1,500×g for 10 min. An aliquot (1 ml) of supernatant, which contains radiolabeled antigen-antibody complex, was counted in a gamma counter.
# [4] = tested on: NSCLC VIP receptors (EPLC-65H membranes); assay: 125I-VIP binding to EPLC-65H membranes
# [5] = coinjected ip with VIP at 3-fold molar excess
substance,measurement,setting,value
GHRH: unlabeled peptide tested for specificity of 125I-VIP binding,IC50,[1],20 nM
LMYPTYLK [octamere],effect on VIP-stimulated sexual behavior,"[2]; coinjected with VIP (5 ug), 20-fold molar excess, 30 ug/animal ip",specifically inhibited VIP effects on sexual behavior
Lys-Pro-Arg-Arg-Pro-Tyr-Thr-Asp-Asn-Tyr-Thr-Arg-Leu-Arg-Lys-Gln-Met-Ala-Val-Lys-Lys-Tyr-Leu-Asn-Ser-Ile-Leu-Asn-NH2 (KPRRPYTDNYTRLRKQMAVKKYLNSILN-NH2) [VIP-neurotensin hybrid antagonist],effect on VIP-stimulated sexual activity,[2]; [5],complete blockade of VIP activity
same,sexual activity values lower than the control values,[2]; [5],2 fold
same,latency to the first copulatory event,"[2]; coinjected ip with VIP at 3-fold molar excess, 40±9 with VIP alone",92 ± 20 s
same,rate of copulatory events,"[2]; injected by itself, 10 animals, from 1.66±0.12",1.16±0.11
same,intromission interval,"[2]; injected by itself, 10 animals, from 36.9±2.4",53.4 ± 8.6 s
same,IC50,"VIP receptor; read-out: IC50, first binding site of biphasic displacement curve",0.05 nM
same,IC50,"VIP receptor; read-out: IC50, second binding site of biphasic displacement curve",100 nM
same,displacement of VIP binding,VIP receptor,85-90%
same,IC50,[1],10 nM
same,colony fraction (colonies with antagonist relative to basal colonies),NCI-H522,0.45±0.16
same,colony fraction (colonies with antagonist relative to basal colonies),NCI-H838,0.76±0.04
same,colony fraction (colonies with antagonist relative to basal colonies),NCI-H1246,1.47±0.30
VIP: a 28 amino acid peptide with an amidated C-terminal; widely distributed peptide hormone,mean latency to the first mount and intromission,[3],23 ± 4 s
same,mean interval between copulatory events,"[3]; 15-min test, vs saline",significant reduction
same,rate of copulation,"[3]; 15-min test, vs saline",significant increase
same,decrease in the latency to the first intromission,[3]; vs control,2- to 3 fold
same,rats that ejaculated,[3]; 10-20% before treatment,all of the rats ejaculated
same,drop in the intervals between copulatory events (including latency to first intromission),"castrated rats; 14 days after castration, 5 ug ip",2- to 4 fold
same,intromission latency,"castrated rats; 14 days after castration, 5 ug ip, six animals, 90±16 before",35 ± 2.4 s
same,animals that ejaculated,"castrated rats; model without testosterone supplementation, after VIP treatment",1 of 6
same,decrease in intervals (intromission latencies) between copulatory events,[2]; 5 ug ip,2 fold
same,latency to the first intromission,"[2]; 5 ug ip, nine animals, 74±10 without VIP",40 ± 9 s
same,increase in the rate of intromissions before ejaculation or end of test period,"[2]; 5 ug ip, vs saline injection",~2 fold
same,animals that ejaculated,"[2]; after VIP treatment, 15 animals",80-100%
same,displacement of VIP binding,VIP receptor,75%
same,IC50,[1],10 nM
same,"ED50, increase of cAMP levels",cAMP levels in 5M2 cells,10 nM
^125 I-VIP: VIP iodinated using the chloramine T procedure; radiolabeled VIP,Kd,"[1]; read-out: Kd, high affinity site (Scatchard)",0.7 nM
same,Kd,"[1]; read-out: Kd, low affinity site (Scatchard)",20 nM
same,time at which half of the specific binding was reversed (dissociation),[1]; after addition of 1 μM unlabeled VIP,40 min
same,time to half maximal specific binding (association),[4],20 min
same,time to maximal specific binding (association),[4],60 min
helodermin,IC50,[1],100 nM
"peptide histidine isoleucine amide (HADGVFTSDYSRLLGQISAKKYLESLI-NH2; UniProt P01283 81-107, looked up) [PHI, cosynthesized with VIP on the same protein precursor]","average latency to intromissions and rate of copulatory events, difference from VIP by itself",[2]; PHI by itself or VIP plus PHI equimolar,2 fold
same,animals that ejaculated,"[2]; in the presence of PHI, 5 ug iv",one of nine
same,effect on rat sexual behavior,[2]; peptide by itself (5 ug iv) or with VIP,inhibited rat sexual behavior and VIP-induced rat sexual behavior
same,IC50,[1],80 nM
secretin,IC50,[1],300 nM
